Columns and labels:
Type in all cases: in vivo
[1] = system: kochia (Kochia scoparia); experiment: Test A postemergence, visual injury rating; conditions: 0 is no effect, 100 is complete control; for Kochia plant response rating: 0 to 100 scale, approximately 10 days
How it was run: (§1)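 Pre- and postemergence greenhouse screen. Soil: loam + sand. Spray carrier: solvent mixture, non-phytotoxic, with surfactant. Post timing at 1–2 leaves, height 2–10 cm. Readout: visual injury on a 0–100 scale roughly 10 days after application, untreated plants as reference.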

[2] = system: blackgrass (Alopecurus myosuroides); experiment: Test A postemergence, visual injury rating; conditions: 0 is no effect, 100 is complete control; for Blackgrass plant response rating: 0 to 100 scale, approximately 10 days
How it was run: as §1

[3] = system: giant foxtail (Setaria faberii); experiment: Test A postemergence, visual injury rating; conditions: 0 is no effect, 100 is complete control; for Foxtail, Giant plant response rating: 0 to 100 scale, approximately 10 days
How it was run: as §1

[4] = system: corn (Zea mays); experiment: Test A postemergence, visual injury rating; conditions: 0 is no effect, 100 is complete control; for Corn plant response rating: 0 to 100 scale, approximately 10 days
How it was run: as §1

[5] = system: barnyardgrass (Echinochloa crus-galli); experiment: Test A postemergence, visual injury rating; conditions: 0 is no effect, 100 is complete control; for Barnyardgrass plant response rating: 0 to 100 scale, approximately 10 days
How it was run: as §1

[6] = system: pigweed (Amaranthus retroflexus); experiment: Test A postemergence, visual injury rating; conditions: 0 is no effect, 100 is complete control; for Pigweed plant response rating: 0 to 100 scale, approximately 10 days
How it was run: as §1

[7] = system: galium (catchweed bedstraw, Galium aparine); experiment: Test A postemergence, visual injury rating; conditions: 0 is no effect, 100 is complete control; for Galium plant response rating: 0 to 100 scale, approximately 10 days
How it was run: as §1

[8] = system: ragweed (common ragweed, Ambrosia elatior); experiment: Test A postemergence, visual injury rating; conditions: 0 is no effect, 100 is complete control; for Ragweed plant response rating: 0 to 100 scale, approximately 10 days
How it was run: as §1

[9] = system: wheat (Triticum aestivum); experiment: Test A postemergence, visual injury rating; conditions: 0 is no effect, 100 is complete control; for Wheat plant response rating: 0 to 100 scale, approximately 10 days
How it was run: as §1

[10] = system: Italian ryegrass (Lolium multiflorum); experiment: Test A postemergence, visual injury rating; conditions: 0 is no effect, 100 is complete control; for Ryegrass, Italian plant response rating: 0 to 100 scale, approximately 10 days
How it was run: as §1

[11] = system: sedge, umbrella (small-flower umbrella sedge, Cyperus difformis); experiment: Test B flooded paddy test, plant response rating; conditions: 250 g ai/ha; Flood; scale of 0 to 100 where 0 is no effect and 100 is complete control; 13 to 15 days
How it was run: (§2)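 Test compounds are applied straight into paddy water held 3 cm above the soil surface, with that flood maintained for the whole test. After 13 to 15 days in the greenhouse, each species is scored visually relative to controls.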

[12] = system: ducksalad (Heteranthera limosa); experiment: Test B flooded paddy test, plant response rating; conditions: 250 g ai/ha; Flood; scale of 0 to 100 where 0 is no effect and 100 is complete control; 13 to 15 days
How it was run: as §2

[13] = system: barnyardgrass (Echinochloa crus-galli); experiment: Test B flooded paddy test, plant response rating; conditions: 250 g ai/ha; Flood; scale of 0 to 100 where 0 is no effect and 100 is complete control; 13 to 15 days
How it was run: as §2

[14] = system: rice (Oryza sativa); experiment: Test B flooded paddy test, plant response rating; conditions: 250 g ai/ha; Flood; scale of 0 to 100 where 0 is no effect and 100 is complete control; 13 to 15 days
How it was run: as §2

[15] = system: kochia (Kochia scoparia); experiment: Test A preemergence, visual injury rating
How it was run: as §1

[16] = system: giant foxtail (Setaria faberii); experiment: Test A preemergence, visual injury rating
How it was run: as §1

[17] = system: barnyardgrass (Echinochloa crus-galli); experiment: Test A preemergence, visual injury rating
How it was run: as §1

[18] = system: pigweed (Amaranthus retroflexus); experiment: Test A preemergence, visual injury rating
How it was run: as §1

[19] = system: ragweed (common ragweed, Ambrosia elatior); experiment: Test A preemergence, visual injury rating
How it was run: as §1

[20] = system: Italian ryegrass (Lolium multiflorum); experiment: Test A preemergence, visual injury rating
How it was run: as §1

[21] = 125 g ai/ha, 0 to 100 scale (0 no effect, 100 complete control)
[22] = 500 g ai/ha, 0 to 100 scale (0 no effect, 100 complete control)
[23] = 31 g ai/ha, 0 to 100 scale, 0 no effect, 100 complete control

N#CCOC(=O)c1c(F)cccc1Oc1ncc(Cl)cn1 [Compound 49]
Kochia plant response rating (0 to 100 scale) ([1]; 125 g ai/ha): 0 | Kochia plant response rating (0 to 100 scale) ([1]; 500 g ai/ha): 0 | Blackgrass plant response rating (0 to 100 scale) ([2]; 125 g ai/ha): 0 | Blackgrass plant response rating (0 to 100 scale) ([2]; 500 g ai/ha): 0 | Foxtail, Giant plant response rating (0 to 100 scale) ([3]; 125 g ai/ha): 0 | Foxtail, Giant plant response rating (0 to 100 scale) ([3]; 500 g ai/ha): 0 | Corn plant response rating (0 to 100 scale) ([4]; 125 g ai/ha): 0 | Corn plant response rating (0 to 100 scale) ([4]; 500 g ai/ha): 0 | Barnyardgrass plant response rating (0 to 100 scale) ([5]; 125 g ai/ha): 0 | Barnyardgrass plant response rating (0 to 100 scale) ([5]; 500 g ai/ha): 0 | Pigweed plant response rating (0 to 100 scale) ([6]; 125 g ai/ha): 0 | Pigweed plant response rating (0 to 100 scale) ([6]; 500 g ai/ha): 0 | Galium plant response rating (0 to 100 scale) ([7]; 125 g ai/ha): 0 | Galium plant response rating (0 to 100 scale) ([7]; 500 g ai/ha): 0 | Ragweed plant response rating (0 to 100 scale) ([8]; 125 g ai/ha): 0 | Ragweed plant response rating (0 to 100 scale) ([8]; 500 g ai/ha): 0 | Wheat plant response rating (0 to 100 scale) ([9]; 125 g ai/ha): 0 | Wheat plant response rating (0 to 100 scale) ([9]; 500 g ai/ha): 0 | Ryegrass, Italian plant response rating (0 to 100 scale) ([10]; 125 g ai/ha): 0 | Ryegrass, Italian plant response rating (0 to 100 scale) ([10]; 500 g ai/ha): 0 | Plant response rating, Sedge, Umbrella [11]: 0 | Plant response rating, Ducksalad [12]: 0 | Plant response rating, Barnyardgrass [13]: 20 | Plant response rating, Rice [14]: 20 | Kochia plant response rating [15, 21]: 0 | Kochia plant response rating [15, 22]: 0 | Foxtail, Giant plant response rating [16, 21]: 0 | Foxtail, Giant plant response rating [16, 22]: 0 | Barnyardgrass plant response rating [17, 21]: 0 | Barnyardgrass plant response rating [17, 22]: 0 | Pigweed plant response rating [18, 21]: 0 | Pigweed plant response rating [18, 22]: 0 | Ragweed plant response rating [19, 21]: 0 | Ragweed plant response rating [19, 22]: 0 | Ryegrass, Italian plant response rating [20, 21]: 0 | Ryegrass, Italian plant response rating [20, 22]: 0

CCCC(C#N)c1c(Br)cccc1Oc1ncc(Cl)cn1 (stereo not drawn) [Compound 118]
Kochia plant response rating ([1]; 31 g ai/ha): 30 | Kochia plant response rating ([1]; 125 g ai/ha): 60 | Blackgrass plant response rating ([2]; 31 g ai/ha): 0 | Blackgrass plant response rating ([2]; 125 g ai/ha): 0 | Foxtail, Giant plant response rating ([3]; 31 g ai/ha): 0 | Foxtail, Giant plant response rating ([3]; 125 g ai/ha): 10 | Corn plant response rating ([4]; 31 g ai/ha): 0 | Corn plant response rating ([4]; 125 g ai/ha): 10 | Barnyardgrass plant response rating ([5]; 31 g ai/ha): 0 | Barnyardgrass plant response rating ([5]; 125 g ai/ha): 10 | Pigweed plant response rating ([6]; 31 g ai/ha): 40 | Pigweed plant response rating ([6]; 125 g ai/ha): 60 | Galium plant response rating ([7]; 31 g ai/ha): 10 | Galium plant response rating ([7]; 125 g ai/ha): 30 | Ragweed plant response rating ([8]; 31 g ai/ha): 0 | Ragweed plant response rating ([8]; 125 g ai/ha): 10 | Wheat plant response rating ([9]; 31 g ai/ha): 0 | Wheat plant response rating ([9]; 125 g ai/ha): 0 | Ryegrass, Italian plant response rating ([10]; 31 g ai/ha): 0 | Ryegrass, Italian plant response rating ([10]; 125 g ai/ha): 0 | Plant response rating, Sedge, Umbrella [11]: 50 | Plant response rating, Ducksalad [12]: 0 | Plant response rating, Barnyardgrass [13]: 0 | Plant response rating, Rice [14]: 0 | Plant response rating, Kochia [15, 23]: 0 | Plant response rating, Kochia [15, 21]: 0 | Plant response rating, Foxtail, Giant [16, 23]: 0 | Plant response rating, Foxtail, Giant [16, 21]: 20 | Plant response rating, Barnyardgrass [17, 23]: 0 | Plant response rating, Barnyardgrass [17, 21]: 0 | Plant response rating, Pigweed [18, 23]: 20 | Plant response rating, Pigweed [18, 21]: 50 | Plant response rating, Ragweed [19, 23]: 100 | Plant response rating, Ragweed [19, 21]: 50 | Plant response rating, Ryegrass, Italian [20, 23]: 0 | Plant response rating, Ryegrass, Italian [20, 21]: 0
